Results as given in patent US10206902B2, “Mono- or di-substituted indoles as dengue viral replication inhibitors” (priority 2014, dated 2019).

Assays:
[1] = tested on: DENV-2 16681 strain; assay: DENV-2 antiviral assay (eGFP-labelled virus in Vero cells); type: cell-based, Dengue virus; conditions: DENV-2 16681 eGFP, MOI 0.5, 3 days
Protocol: The antiviral activity of all the compounds of the invention was tested against DENV-2 16681 strain which was labeled with enhanced green fluorescent protein (eGPF). The culture medium consists of minimal essential medium supplemented with 2% of heat-inactivated fetal calf serum, 0.04% gentamycin (50 mg/mL) and 2 mM of L-glutamine. Vero cells, obtained from ECACC, were suspended in culture medium and 25 μL was added to 384-well plates (2500 cells/well), which already contain the antiviral compounds. Typically, these plates contain a 4-fold serial dilution of 9 dilution steps of the test compound at 200 times the final concentration in 100% DMSO (200 nL). In addition, each compound concentration is tested in quadruplicate (final concentration range: 25 μM-0.00038 μM). Finally, each plate contains wells which are assigned as virus controls (containing cells and virus in the absence of compound), cell controls (containing cells in the absence of virus and compound) and medium controls (containing medium in the absence of cells, virus and compounds). To the wells assigned as medium control, 25 μL of culture medium was added instead of Vero cells. Once the cells were added to the plates, the plates were incubated for 30 minutes at room temperature to allow the cells to distribute evenly within the wells. Next, the plates were incubated in a fully humidified incubator (37° C., 5% CO2) until the next day. Then, DENV-2 strain 16681, labeled with eGFP, was added at a multiplicity of infection (MOI) of 0.5. Therefore, 15 μL of virus suspension was added to all the wells containing test compound and to the wells assigned as virus control. In parallel, 15 μL of culture medium was added to the medium and cell controls. Next, the plates were incubated for 3 days in a fully humidified incubator (37° C., 5% CO2). At the day of the read out, the eGFP fluorescence was measured using an automated fluorescence microscope at 488 nm (blue laser). Using an in-house LIMS system, inhibition dose response curves for each compound were calculated and the half maximal effective concentration (EC50) was determined. Therefore, the percent inhibition (I) for every test concentration is calculated using the following formula: I=100*(ST−SCC)/(SVC−SCC); ST, SCC and SVC are the amount of eGFP signal in the test compound, cell control and virus control wells, respectively. The EC50 represents the concentration of a compound at which the virus replication is inhibited with 50%, as measured by a 50% reduction of the eGFP fluorescent intensity compared to the virus control. The EC50 is calculated using linear interpolation (Table 1).

[2] = tested on: DENV-4 strain EDEN; assay: Tetravalent RT-qPCR assay Protocol A, serotype 4 EDEN; type: cell-based; conditions: Dengue virus, DENV4, 72 h, RT-qPCR serotype 4 EDEN, Vero cells, day 3
Protocol: The antiviral activity of the compounds of the invention was tested against DENV-1 strain TC974#666 (NCPV), DENV-2 strain 16681, DENV-3 strain H87 (NCPV) and DENV-4 strains H241 (NCPV) and EDEN (SG/06K2270DK1/2005; GenBank accession number QG398256) in a RT-qPCR assay. Therefore, Vero cells were infected with either DENV-1, or -2, or -3, or -4 in the presence or absence of test compounds. At day 3 post-infection, the cells were lysed and cell lysates were used to prepare cDNA of both a viral target (the 3′UTR of DENV; table 2) and a cellular reference gene (β-actin, table 2). Subsequently, a duplex real time PCR was performed on a Lightcycler480 instrument. The generated Cp value is inversely proportional to the amount of RNA expression of these targets. Inhibition of DENV replication by a test compound result in a shift of Cp's for the 3′UTR gene. On the other hand, if a test compound is toxic to the cells, a similar effect on β-actin expression will be observed. The comparative ΔΔCp method is used to calculate EC50, which is based on the relative gene expression of the target gene (3′UTR) normalized with the cellular housekeeping gene (β-actin). In addition, CC50 values were determined based on the Cp values acquired for the housekeeping gene β-actin.
The culture medium consisted of minimal essential medium supplemented with 2% of heat-inactivated fetal calf serum, 0.04% gentamycin (50 mg/mL) and 2 mM of L-glutamine. Vero cells, obtained from ECACC, were suspended in culture medium and 75 μL/well was added in 96-well plates (10000 cells/well), which already contain the antiviral compounds. Typically, these plates contain a 4-fold serial dilution of 9 dilution steps of the test compound at 200 times the final concentration in 100% DMSO (500 nL; final concentration range: 25 μM-0.00038 μM). In addition, each plate contains wells which are assigned as virus controls (containing cells and virus in the absence of compound) and cell controls (containing cells in the absence of virus and compound). Once the cells were added in the plates, the plates were incubated in a fully humidified incubator (37° C., 5% CO2) until the next day. Then, DENV-1 strain TC974#666, DENV-2 strain 16681, DENV-3 strain H87 or DENV-4 strains H241 or EDEN were added. […] In parallel, 25 μL of culture medium was added to the cell controls. Next, the plates were incubated for 3 days in a fully humidified incubator (37° C., 5% CO2). After 3 days, the supernatant was removed from the wells and the cells were washed twice with ice-cold PBS (˜100 μL). The cell pellets within the 96-well plates were stored at −80° C. for at least 1 day. Next, RNA was extracted using the Cells-to-CT™ lysis kit, according to the manufacture's guideline (Applied Biosystems). The cell lysates can be stored at −80° C. or immediately used in the reverse transcription step. In preparation of the reverse transcription step, mix A (table 3A) was prepared and 7.57 μL/well was dispensed in a 96-well plate. After addition of 5 μL of the cell lysates, a five minute denaturation step at 75° C. was performed (table 3B). Afterwards, 7.43 μL of mix B was added (table 3C) and the reverse transcription step was initiated (table 3D) to generate cDNA.
Finally, a RT-qPCR mix was prepared, mix C (table 4A), dispensed in 96-well LightCycler qPCR plates to which 3 μL of cDNA was added and the qPCR was performed according to the conditions in table 4B on a LightCycler 480. Using the LightCycler software and an in-house LIMS system, dose response curves for each compound were calculated and the half maximal effective concentration (EC50) and the half maximal cytotoxic concentration (CO50) were determined (Tables 6-9).

Row | Compound | EC50 [1] | EC50 [2]
1 | COc1cc(NC(C(=O)c2c[nH]c3c(C)c(OC)ccc23)c2ccc(F)cc2OC)cc(OCCO)c1 (single isomer, unassigned) [Compound 11A, 2-(4-fluoro-2-methoxyphenyl)-2-((3-(2-hydroxyethoxy)-5-methoxyphenyl)amino)-1-(6-methoxy-7-methyl-1H-indol-3-yl)ethanone] | 0.81 nM | 15 nM
2 | COc1cc(NC(C(=O)c2c[nH]c3c(F)cc(C)cc23)c2ccc(F)cc2OC)cc(OCCO)c1 (single isomer, unassigned) [Compound 12B, 2-(4-fluoro-2-methoxyphenyl)-1-(7-fluoro-5-methyl-1H-indol-3-yl)-2-((3-(2-hydroxyethoxy)-5-methoxyphenyl)amino)ethanone] | 5.1 nM | 17 nM
3 | COc1cc(NC(C(=O)c2c[nH]c3cc(Cl)ccc23)c2ccc(F)cc2OC)cc(OCCO)c1 (single isomer, unassigned) [Compound 4A, 1-(6-chloro-1H-indol-3-yl)-2-(4-fluoro-2-methoxyphenyl)-2-((3-(2-hydroxyethoxy)-5-methoxyphenyl)amino)ethanone] | 1.6 nM | 16 nM
4 | COc1cc(NC(C(=O)c2c[nH]c3c(C)c(F)ccc23)c2ccc(F)cc2OC)cc(OCCO)c1 (single isomer, unassigned) [Compound 2B, 2-(4-fluoro-2-methoxyphenyl)-1-(6-fluoro-7-methyl-1H-indol-3-yl)-2-((3-(2-hydroxyethoxy)-5-methoxyphenyl)amino)ethanone] | 2.2 nM | 11 nM
5 | COc1cc(NC(C(=O)c2c[nH]c3c(Cl)c(OC)ccc23)c2ccc(F)cc2OC)cc(OCCO)c1 (single isomer, unassigned) [Compound 8A, 1-(7-chloro-6-methoxy-1H-indol-3-yl)-2-(4-fluoro-2-methoxyphenyl)-2-((3-(2-hydroxyethoxy)-5-methoxyphenyl)amino)ethanone] | 1 nM | 21 nM
6 | COc1cc(NC(C(=O)c2c[nH]c3cc(F)c(F)cc23)c2ccc(F)cc2OC)cc(OCCO)c1 (single isomer, unassigned) [Compound 10B, 1-(5,6-difluoro-1H-indol-3-yl)-2-(4-fluoro-2-methoxy-phenyl)-2-((3-(2-hydroxyethoxy)-5-methoxyphenyl)amino)ethanone] | 2.7 nM | 20 nM
7 | COc1cc(NC(C(=O)c2c[nH]c3cc(F)ccc23)c2ccc(F)cc2OC)cc(OCCO)c1 (single isomer, unassigned) [Compound 1A, 1-(6-fluoro-1H-indol-3-yl)-2-(4-fluoro-2-methoxyphenyl)-2-((3-(2-hydroxyethoxy)-5-methoxyphenyl)amino)ethanone] | 3.8 nM | 12 nM
8 | COc1cc(NC(C(=O)c2c[nH]c3c(C)cc(F)cc23)c2ccc(F)cc2OC)cc(OCCO)c1 (single isomer, unassigned) [Compound 9B, 2-(4-fluoro-2-methoxyphenyl)-1-(5-fluoro-7-methyl-1H-indol-3-yl)-2-((3-(2-hydroxyethoxy)-5-methoxyphenyl)amino)ethanone] | 3.4 nM | 20 nM
9 | COc1cc(NC(C(=O)c2c[nH]c3cc(OC)c(F)cc23)c2ccc(F)cc2OC)cc(OCCO)c1 (single isomer, unassigned) [Compound 7A, 2-(4-fluoro-2-methoxyphenyl)-1-(5-fluoro-6-methoxy-1H-indol-3-yl)-2-((3-(2-hydroxyethoxy)-5-methoxyphenyl)amino)ethanone] | 4.6 nM | 23 nM
10 | COc1cc(NC(C(=O)c2c[nH]c3cc(OC)c(C)cc23)c2ccc(F)cc2OC)cc(OCCO)c1 (single isomer, unassigned) [Compound 6A, 2-(4-fluoro-2-methoxyphenyl)-2-((3-(2-hydroxyethoxy)-5-methoxyphenyl)amino)-1-(6-methoxy-5-methyl-1H-indol-3-yl)ethanone] | 2.7 nM | 13 nM
11 | COc1cc(NC(C(=O)c2c[nH]c3c(F)c(F)ccc23)c2ccc(F)cc2OC)cc(OCCO)c1 (single isomer, unassigned) [Compound 5B, 1-(6,7-difluoro-1H-indol-3-yl)-2-(4-fluoro-2-methoxyphenyl)-2-((3-(2-hydroxyethoxy)-5-methoxyphenyl)amino)ethanone] | 2.5 nM | 24 nM
12 | COc1cc(NC(C(=O)c2c[nH]c3c(C)c(Cl)ccc23)c2ccc(F)cc2OC)cc(OCCO)c1 (single isomer, unassigned) [Compound 3A, 1-(6-chloro-7-methyl-1H-indol-3-yl)-2-(4-fluoro-2-methoxyphenyl)-2-((3-(2-hydroxyethoxy)-5-methoxyphenyl)amino)ethanone] | 0.77 nM | 16 nM
